Data on three compounds can be found in patent publication US10479786B2, “Protein kinase inhibitors” (Princeton Drug Discovery Inc, priority 2016, dated 2019).

By inhibition is commonly meant the share of the control response that was lost under treatment. For orientation: IC50 means the concentration at which inhibition is half-maximal.

The subject of series [1] is battery of selected protein kinases. Kind of series: In vitro screen of a battery of selected protein kinases (summary statement). Format: biochemical. Conditions: BTK, BMX, ABL, ABL(E255K), SRC, ACK, ARG, BLK, DDR2, EPHA, FGR, FMS, FRK, FYN, HCK, LCK, LYN, PDGFRα, PDGFRβ, YES, PIK3CA/PIK3R1, among others.
The target of series [2] is T1, ARG (Homo sapiens, UniProt P42684).
T1 construct: purchased Carna Biosciences, Inc
T1 sequence (P42684 whole entry): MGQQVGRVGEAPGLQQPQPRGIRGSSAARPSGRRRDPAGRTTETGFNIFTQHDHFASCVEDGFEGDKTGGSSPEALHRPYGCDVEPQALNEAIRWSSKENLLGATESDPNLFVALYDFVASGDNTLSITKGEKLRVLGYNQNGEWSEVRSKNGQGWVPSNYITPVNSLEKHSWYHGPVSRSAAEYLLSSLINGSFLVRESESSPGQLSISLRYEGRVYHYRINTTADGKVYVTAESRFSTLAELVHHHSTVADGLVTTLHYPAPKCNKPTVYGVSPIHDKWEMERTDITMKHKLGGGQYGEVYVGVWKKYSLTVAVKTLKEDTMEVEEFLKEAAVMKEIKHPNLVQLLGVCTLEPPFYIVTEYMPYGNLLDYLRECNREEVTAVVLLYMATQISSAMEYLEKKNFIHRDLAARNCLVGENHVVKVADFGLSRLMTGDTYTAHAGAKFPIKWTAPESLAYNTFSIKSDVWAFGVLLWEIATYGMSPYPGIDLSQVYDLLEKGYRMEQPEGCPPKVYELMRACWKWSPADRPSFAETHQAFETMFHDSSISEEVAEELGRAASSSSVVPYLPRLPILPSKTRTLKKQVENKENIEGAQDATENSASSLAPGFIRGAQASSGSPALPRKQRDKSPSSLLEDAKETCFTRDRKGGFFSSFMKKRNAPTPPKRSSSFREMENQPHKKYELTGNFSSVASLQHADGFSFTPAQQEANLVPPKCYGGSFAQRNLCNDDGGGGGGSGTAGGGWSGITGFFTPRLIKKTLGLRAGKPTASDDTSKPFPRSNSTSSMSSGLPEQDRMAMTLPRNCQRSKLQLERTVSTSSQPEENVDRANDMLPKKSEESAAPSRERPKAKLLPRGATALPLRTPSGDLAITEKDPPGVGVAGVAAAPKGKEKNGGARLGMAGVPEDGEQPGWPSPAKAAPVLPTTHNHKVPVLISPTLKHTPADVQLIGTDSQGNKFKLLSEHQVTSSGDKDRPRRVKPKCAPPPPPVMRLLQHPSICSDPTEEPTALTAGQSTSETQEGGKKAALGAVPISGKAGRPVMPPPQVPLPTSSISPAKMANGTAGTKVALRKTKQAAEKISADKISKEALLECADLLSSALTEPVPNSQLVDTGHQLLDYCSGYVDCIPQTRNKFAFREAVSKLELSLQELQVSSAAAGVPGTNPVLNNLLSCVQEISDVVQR
Kind of series: Off-chip Mobility Shift Assay, kinase inhibition. Format: biochemical.

Series [3] can be described thus: Pharmacokinetics in Sprague-Dawley rats, 2-in-1 dosing. Conditions: rat; for V: intravenous 1 mg/kg. Format: in vivo. The procedure:
Sprague-Dawley rats (approximate weight 275-300 g, N=3) were dosed intravenously at 5 mL/kg and orally at 10 mL/kg with the above dosing solutions. Blood samples were collected into tubes containing EDTA as the anticoagulant at 0, 0.25 (intravenous only), 0.5, 1, 2, 4, 8, 10, and 24 h post-dosing, and plasma samples were prepared by centrifugation. The plasma samples were mixed with 3× volumes of acetonitrile containing 100 nM reserpine as the internal standard, and centrifuged at 4000 RPM for 15 min. The supernatants were injected for LC/MS analysis which were carried out on a AB Sciex 4000 Q Trap LC/MS/MS system coupled with Shimadzu Prominence UFLCXR 20 series (including a CBM-20A controller, two LC-20ADXR solvent delivery units, SIL-20AC HT autosampler, CTO-20A column oven, and a SPD-20A UV detector). The samples were separated on a Phenomenex Columbus column (C18, 4 μm, 50×2 mm) eluted with two solvent systems: 2 mM ammonium acetate in water containing 0.1% formic acid (A) and methanol (B) at a linear gradient starting with 25% B. Electrospray ionization in positive mode was used to acquire LC/MS/MS data.

Series [4] has as its target T2, PDGFRα (Homo sapiens, UniProt P16234).
T2 construct: purchased Carna Biosciences, Inc
As to the kind of experiment: Off-chip Mobility Shift Assay, kinase inhibition. Format: biochemical.

The target in series [5] is T3, PDGFRβ (Homo sapiens, UniProt P09619).
T3 construct: purchased Carna Biosciences, Inc
T3 sequence (P09619 33-1106): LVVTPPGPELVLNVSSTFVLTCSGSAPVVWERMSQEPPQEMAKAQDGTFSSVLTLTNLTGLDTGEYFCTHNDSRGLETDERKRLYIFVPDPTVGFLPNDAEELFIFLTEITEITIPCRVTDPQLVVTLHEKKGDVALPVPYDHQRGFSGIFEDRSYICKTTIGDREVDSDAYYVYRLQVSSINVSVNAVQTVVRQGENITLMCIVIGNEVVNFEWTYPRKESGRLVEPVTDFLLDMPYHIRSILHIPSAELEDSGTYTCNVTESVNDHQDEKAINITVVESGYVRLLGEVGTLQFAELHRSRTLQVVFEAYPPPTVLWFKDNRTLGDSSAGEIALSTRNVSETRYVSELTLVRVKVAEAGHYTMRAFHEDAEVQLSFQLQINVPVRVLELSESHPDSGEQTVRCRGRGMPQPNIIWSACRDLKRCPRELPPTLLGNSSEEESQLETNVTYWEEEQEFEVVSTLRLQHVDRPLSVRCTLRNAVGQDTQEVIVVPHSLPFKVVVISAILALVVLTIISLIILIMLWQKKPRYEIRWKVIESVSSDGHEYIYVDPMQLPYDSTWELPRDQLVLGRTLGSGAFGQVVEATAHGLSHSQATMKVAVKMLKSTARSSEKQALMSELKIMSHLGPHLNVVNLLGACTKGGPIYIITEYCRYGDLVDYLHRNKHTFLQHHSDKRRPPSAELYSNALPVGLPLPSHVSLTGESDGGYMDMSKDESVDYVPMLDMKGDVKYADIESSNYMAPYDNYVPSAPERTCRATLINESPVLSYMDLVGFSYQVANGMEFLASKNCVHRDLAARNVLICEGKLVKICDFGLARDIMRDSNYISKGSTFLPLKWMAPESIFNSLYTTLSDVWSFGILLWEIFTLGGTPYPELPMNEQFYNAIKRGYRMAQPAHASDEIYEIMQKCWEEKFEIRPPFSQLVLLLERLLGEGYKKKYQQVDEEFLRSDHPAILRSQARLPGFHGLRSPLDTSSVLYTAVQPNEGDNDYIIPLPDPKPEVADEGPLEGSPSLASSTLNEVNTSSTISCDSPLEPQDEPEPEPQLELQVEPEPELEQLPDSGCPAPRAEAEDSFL
Kind of series: Off-chip Mobility Shift Assay, kinase inhibition. Format: biochemical.

The target of series [6] is T4, LYNa (Homo sapiens, UniProt P07948).
T4 construct: purchased Carna Biosciences, Inc
T4 sequence (P07948 whole entry): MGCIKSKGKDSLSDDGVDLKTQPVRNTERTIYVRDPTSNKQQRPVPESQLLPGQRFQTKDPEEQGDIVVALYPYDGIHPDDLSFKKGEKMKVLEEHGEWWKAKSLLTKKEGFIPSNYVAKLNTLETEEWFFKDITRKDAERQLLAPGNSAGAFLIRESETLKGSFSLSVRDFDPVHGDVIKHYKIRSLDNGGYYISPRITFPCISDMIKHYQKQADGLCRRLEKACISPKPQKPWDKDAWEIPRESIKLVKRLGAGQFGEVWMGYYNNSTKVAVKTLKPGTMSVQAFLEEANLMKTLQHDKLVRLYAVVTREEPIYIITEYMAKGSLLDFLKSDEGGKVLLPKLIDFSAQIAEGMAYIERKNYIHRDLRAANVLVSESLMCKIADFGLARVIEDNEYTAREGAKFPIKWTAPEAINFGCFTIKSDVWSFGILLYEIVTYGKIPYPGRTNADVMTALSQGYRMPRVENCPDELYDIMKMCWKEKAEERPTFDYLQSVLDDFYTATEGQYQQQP
Kind of series: Off-chip Mobility Shift Assay, kinase inhibition. Format: biochemical.

The target of series [7] is T5, DDR2 (Homo sapiens, UniProt Q16832).
T5 construct: purchased Carna Biosciences, Inc
T5 sequence (Q16832 22-855): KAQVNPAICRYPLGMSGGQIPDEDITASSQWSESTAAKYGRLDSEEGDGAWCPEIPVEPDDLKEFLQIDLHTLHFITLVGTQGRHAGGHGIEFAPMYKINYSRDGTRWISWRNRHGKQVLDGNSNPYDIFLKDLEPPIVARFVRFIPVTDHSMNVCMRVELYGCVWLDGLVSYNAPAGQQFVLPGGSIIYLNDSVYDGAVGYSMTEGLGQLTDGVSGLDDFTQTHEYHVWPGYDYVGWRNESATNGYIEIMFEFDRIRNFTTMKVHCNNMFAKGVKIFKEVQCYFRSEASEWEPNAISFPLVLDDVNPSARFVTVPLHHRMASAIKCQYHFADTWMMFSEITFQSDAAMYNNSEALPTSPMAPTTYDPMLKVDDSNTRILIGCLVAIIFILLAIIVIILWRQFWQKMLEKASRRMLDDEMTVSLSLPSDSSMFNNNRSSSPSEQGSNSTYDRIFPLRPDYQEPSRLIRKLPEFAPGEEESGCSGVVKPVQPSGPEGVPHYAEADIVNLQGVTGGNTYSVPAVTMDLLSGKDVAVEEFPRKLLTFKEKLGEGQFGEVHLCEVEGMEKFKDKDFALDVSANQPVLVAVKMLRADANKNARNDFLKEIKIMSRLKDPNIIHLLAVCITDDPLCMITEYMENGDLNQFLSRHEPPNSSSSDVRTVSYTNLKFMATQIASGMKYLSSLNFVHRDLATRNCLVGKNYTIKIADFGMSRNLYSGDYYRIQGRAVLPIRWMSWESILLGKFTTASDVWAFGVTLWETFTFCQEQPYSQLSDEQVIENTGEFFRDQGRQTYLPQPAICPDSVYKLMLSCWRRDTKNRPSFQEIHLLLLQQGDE
As to the kind of experiment: Off-chip Mobility Shift Assay, kinase inhibition. Format: biochemical.

The target in series [8] is T6, FGR (Homo sapiens, UniProt P09769).
T6 construct: purchased Carna Biosciences, Inc
T6 sequence (P09769 whole entry): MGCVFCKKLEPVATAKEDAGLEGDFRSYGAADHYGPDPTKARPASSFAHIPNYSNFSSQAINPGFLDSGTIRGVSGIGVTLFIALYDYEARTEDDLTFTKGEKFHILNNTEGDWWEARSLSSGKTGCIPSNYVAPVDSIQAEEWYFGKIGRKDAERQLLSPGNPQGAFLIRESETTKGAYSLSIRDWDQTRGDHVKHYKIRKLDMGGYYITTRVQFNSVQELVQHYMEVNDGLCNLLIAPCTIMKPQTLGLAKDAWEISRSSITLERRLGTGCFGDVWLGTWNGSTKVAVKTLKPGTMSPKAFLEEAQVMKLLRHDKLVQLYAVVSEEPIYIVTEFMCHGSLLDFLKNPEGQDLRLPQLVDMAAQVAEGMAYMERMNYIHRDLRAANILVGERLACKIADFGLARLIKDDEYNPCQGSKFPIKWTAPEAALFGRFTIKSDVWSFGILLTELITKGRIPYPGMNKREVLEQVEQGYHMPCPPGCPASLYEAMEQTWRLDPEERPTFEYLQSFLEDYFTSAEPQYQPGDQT
As to the kind of experiment: Off-chip Mobility Shift Assay, kinase inhibition. It is filed as biochemical.

The target in series [9] is T7, HCK (Homo sapiens, UniProt P08631).
T7 construct: purchased Carna Biosciences, Inc
T7 sequence (P08631 whole entry): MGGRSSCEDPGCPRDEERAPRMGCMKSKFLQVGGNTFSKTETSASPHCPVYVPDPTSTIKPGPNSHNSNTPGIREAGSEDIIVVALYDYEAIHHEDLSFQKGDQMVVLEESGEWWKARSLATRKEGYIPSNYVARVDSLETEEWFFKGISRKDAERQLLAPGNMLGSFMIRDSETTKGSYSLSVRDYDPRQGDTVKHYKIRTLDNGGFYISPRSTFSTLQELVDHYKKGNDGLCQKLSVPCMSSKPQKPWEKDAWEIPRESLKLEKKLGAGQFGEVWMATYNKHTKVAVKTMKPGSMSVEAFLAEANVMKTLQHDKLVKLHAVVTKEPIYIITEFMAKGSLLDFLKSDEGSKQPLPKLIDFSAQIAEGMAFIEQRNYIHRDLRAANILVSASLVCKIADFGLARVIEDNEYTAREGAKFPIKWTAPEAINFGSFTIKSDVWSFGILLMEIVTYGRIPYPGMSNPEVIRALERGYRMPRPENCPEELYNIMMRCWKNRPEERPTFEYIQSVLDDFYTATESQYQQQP
Kind of series: Off-chip Mobility Shift Assay, kinase inhibition. It is filed as biochemical.

Series [10] concerns SU-DHL-4. As to the kind of experiment: Cell inhibition assay (PrestoBlue, 48 h). It is filed as cell-based. Conditions: Homo sapiens, SU-DHL-4, 48 h, SU-DHL-4 diffuse large B-cell lymphoma cells, read-out: IC50, inhibition of growth.
Series [11] relates to Mino. Kind of series: Cell inhibition assay (PrestoBlue, 48 h). It is filed as cell-based. To be noted: Homo sapiens, Mino cells, read-out: IC50, inhibition of growth.
The mark [12] stands for this setting: Table 2, co-dosed with compound IV.
[13] abbreviates: Table 3, co-dosed with compound X.

T2 sequence (P16234 24-1089): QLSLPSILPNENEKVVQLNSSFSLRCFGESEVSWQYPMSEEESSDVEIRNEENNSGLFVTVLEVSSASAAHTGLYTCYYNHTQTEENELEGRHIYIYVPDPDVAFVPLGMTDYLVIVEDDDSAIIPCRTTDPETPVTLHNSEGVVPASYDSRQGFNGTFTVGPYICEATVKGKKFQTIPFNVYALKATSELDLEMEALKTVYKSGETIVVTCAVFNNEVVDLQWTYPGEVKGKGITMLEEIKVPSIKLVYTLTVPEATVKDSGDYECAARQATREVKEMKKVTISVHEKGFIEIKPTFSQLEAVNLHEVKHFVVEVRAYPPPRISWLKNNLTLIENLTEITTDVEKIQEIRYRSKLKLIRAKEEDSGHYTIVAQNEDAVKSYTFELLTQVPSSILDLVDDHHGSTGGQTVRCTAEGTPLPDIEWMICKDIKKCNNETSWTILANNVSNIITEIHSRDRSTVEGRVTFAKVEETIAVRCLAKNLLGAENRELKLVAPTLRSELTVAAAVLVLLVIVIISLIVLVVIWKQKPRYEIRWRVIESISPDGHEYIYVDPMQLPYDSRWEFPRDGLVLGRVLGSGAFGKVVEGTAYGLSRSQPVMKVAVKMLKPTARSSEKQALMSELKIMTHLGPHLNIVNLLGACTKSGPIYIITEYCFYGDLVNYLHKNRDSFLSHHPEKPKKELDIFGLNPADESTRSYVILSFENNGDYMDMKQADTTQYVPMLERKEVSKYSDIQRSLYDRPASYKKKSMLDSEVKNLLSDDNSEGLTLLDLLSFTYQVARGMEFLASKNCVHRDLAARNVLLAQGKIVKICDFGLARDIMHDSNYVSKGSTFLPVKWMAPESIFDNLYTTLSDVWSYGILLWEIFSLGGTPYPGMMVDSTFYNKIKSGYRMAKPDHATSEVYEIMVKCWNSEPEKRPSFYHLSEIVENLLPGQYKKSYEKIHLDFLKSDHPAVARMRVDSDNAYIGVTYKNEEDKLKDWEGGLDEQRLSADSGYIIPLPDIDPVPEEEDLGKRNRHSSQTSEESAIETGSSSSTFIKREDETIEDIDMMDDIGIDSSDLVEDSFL

In the case of `[2H]c1cc(C)c(NC(=O)c2cnc(Nc3cc(N4CCN(CCO)CC4)nc(C)n3)s2)c(Cl)c1` [Compound III], the “activity to inhibit kinases” value in series [1] is reported as “potent activity”. The inhibition at 0.01 µM in [2], in series [4], in series [5], in [6], in series [7] and in series [8] was over 50% each time. In addition, the inhibition at 0.01 µM in series [9] was over 50%. The V in [3] (setting [12]) and in [3] (setting [13]) was 3 ± 0 L/kg each time.

Regarding `Cc1nc(Nc2ncc(C(=O)Nc3c(C)cccc3Cl)s2)cc(N2CCCC2)n1` [Compound XIV, N-(2-chloro-6-methylphenyl)-2-[[2-methyl-6-(pyrrolidin-1-yl)pyrimidin-4-yl]amino]thiazole-5-carboxamide], the IC50 was under 20 nM in [10] and under 50 nM in series [11].

Regarding `Cc1nc(Nc2ncc(C(=O)Nc3c(C)cccc3Cl)s2)cc(N2CCN(CCO)CC2)n1` [Dasatinib, reference compound], the “F, percent oral bioavailability” value in series [3] (PO 5 mg/kg versus intravenous 1 mg/kg, AUCinf dose normalized, Table 3) came out at 3.9±1%. The V came out at 3 ± 0 L/kg in series [3] (setting [12]) and 2 ± 0 L/kg in series [3] (setting [13]).
